Experiments:
[1] = test system: Aβ-38; experiment: Aβ-38 level in conditioned media of 2B7 cells (MSD 3-PLEX ELISA); type: cell-based; settings: Homo sapiens, compound 5 hours at 37° C., 1% DMSO, percent vehicle fit to 4 parameter curve
Procedure: (§1) Assays were conducted to determine the ability of a Compound of Formula I to modulate […], and Aβ-38.
(§2) Plates with capture antibodies were blocked for 1-2 hours at room temperature with 150 μL of the manufactures blocking reagent.
(§3) Cultured 2B7 cells in 96 well plate with 250 uL of media per well until confluent;
(§4) Prepared serial dilutions of compounds in DMSO at 100× the final desired concentration;
(§5) Washed wells with 2B7 cells 1× with 250 uL of media;
(§6) Diluted DMSO stocks 1:100 into media:
(§7) Added 250 μL of media containing compounds (1% DMSO) to wells with 2B7 cells for 5 hours at 37° C.
(§8) Diluted conditioned media: 1 part media with 1% DMSO and 1 part blocking buffer;
(§9) 150 μL of the 250 μL of conditioned media were used.
(§10) Standard Curve Sample Prep:
(§11) Prepared per manufacturer's protocol (see above)
(§12) Seven point standard curve samples were prepared that contained Aβ-42, Aβ-40, and Aβ-38. The highest concentration of Aβ-42 and Aβ-38 was 3,000 pg/mL and the highest concentration of Aβ-40 was 10,000 pg/mL. Subsequent serial dilutions were 1:3 and the final composition of each sample was 1 part blocking buffer and 1 part cell medium containing 1% DMSO.
(§13) Overnight Sample Incubation:
(§14) Blocked plates are washed 5× with MSD wash buffer with a plate washer
(§15) 25 uL of detection antibody and blocker G reagent in MSD blocking solution is added
(§16) 25 uL of samples (1 part conditioned media containing 1% DMSO and 1 part MSD blocking buffer) are then added.
(§17) plates are incubated overnight at 4 degrees C. or 2 hours at room temp
(§18) Wash wells 5× with MSD wash buffer
(§19) Added 150 μL 2×MSD read buffer
(§20) A-Beta peptide levels for each peptide are calculated from the standard curve using the MSD software provided with the MSD 2400 Imager. Percent vehicle values for each compound dosage were then calculated and fit to a 4 parameter curve generating IC50 values.

[2] = test system: Aβ-42; experiment: Aβ-42 level in conditioned media of 2B7 cells (MSD 3-PLEX ELISA); type: cell-based; settings: Homo sapiens, compound 5 hours at 37° C., 1% DMSO, percent vehicle fit to 4 parameter curve
Procedure: as §1, §2, §3, §4, §5, §6, §7, §8, §9, §10, §11, §12, §13, §14, §15, §16, §17, §18, §19, §20

| Structure (SMILES) | IC50 [1] | IC50 [2] |
| --- | --- | --- |
| CCO[C@@H]([C@H]1C[C@@H](C)[C@H]2[C@H](O1)[C@H](O)[C@@]1(C)[C@@H]3CC[C@H]4C(C)(C)[C@@H](OC(=O)[C@@H]5CNCCO5)CCC45C[C@@]35CC[C@]21C)C(C)(C)O (stereo partly drawn) | < 1000 nM | < 1000 nM |
| CCO[C@@H]([C@H]1C[C@@H](C)[C@H]2[C@H](O1)[C@H](O)[C@@]1(C)[C@@H]3CC[C@H]4C(C)(C)[C@@H](O[C@H]5CN(Cc6cncs6)CCO5)CCC45C[C@@]35CC[C@]21C)C(C)(C)O (stereo partly drawn) | 1000 to 10000 nM | < 1000 nM |
| CCO[C@@H]([C@H]1C[C@@H](C)[C@H]2[C@H](O1)[C@H](O)[C@@]1(C)[C@@H]3CC[C@H]4C(C)(C)[C@@H](OC(=O)[C@H]5COCCN5C(C)C)CCC45C[C@@]35CC[C@]21C)C(C)(C)O (stereo partly drawn) | 1000 to 10000 nM | < 1000 nM |
| CCO[C@@H]([C@H]1C[C@@H](C)[C@H]2[C@H](O1)[C@H](O)[C@@]1(C)[C@@H]3CC[C@H]4C(C)(C)[C@@H](O[C@H]5CN(CC(F)F)CCO5)CCC45C[C@@]35CC[C@]21C)C(C)(C)O (stereo partly drawn) | 1000 to 10000 nM | < 1000 nM |
| CCO[C@@H]([C@H]1C[C@@H](C)[C@H]2[C@H](O1)[C@H](O)[C@]1(C)[C@@H]3CC[C@H]4C(C)(C)[C@@H](O[C@H]5CN([C@H](C)CN6CCC6)CCO5)CC[C@@]45C[C@@]35CC[C@@]21C)C(C)(C)O | < 1000 nM | < 1000 nM |
| CCO[C@@H]([C@H]1C[C@@H](C)[C@H]2[C@H](O1)[C@H](O)[C@@]1(C)[C@@H]3CC[C@H]4C(C)(C)[C@@H](O[C@H]5CN(C(CO)CO)CCO5)CCC45C[C@@]35CC[C@]21C)C(C)(C)O (stereo partly drawn) | < 1000 nM | < 1000 nM |
| CCO[C@@H]([C@@H]1C[C@H]2[C@H]([C@H](C)C1)[C@@]1(C)CCC34C[C@@]35CC[C@H](O[C@H]3CN([C@@H](C)C(=O)N(C)C)CCO3)C(C)(C)[C@@H]5CC[C@H]4[C@]1(C)[C@H]2O)C(C)(C)O (stereo partly drawn) |  | < 1000 nM |
| CCO[C@@H]([C@H]1C[C@@H](C)[C@H]2[C@H](O1)[C@H](O)[C@@]1(C)[C@@H]3CC[C@H]4C(C)(C)[C@@H](O[C@H]5CN([C@H](C)C(=O)N(C)C)CCO5)CCC45C[C@@]35CC[C@]21C)C(C)(C)O (stereo partly drawn) | < 1000 nM | < 1000 nM |
| CCO[C@@H]([C@H]1C[C@@H](C)[C@H]2[C@H](O1)[C@H](O)[C@@]1(C)[C@@H]3CC[C@H]4C(C)(C)[C@@H](O[C@H]5CN(CC(F)(F)F)CCO5)CCC45C[C@@]35CC[C@]21C)C(C)(C)O (stereo partly drawn) | 1000 to 10000 nM | 1000 to 10000 nM |
| CC(C)[C@@H](OC(=O)N1CCC1)[C@H]1C[C@@H](C)[C@H]2[C@H](O1)[C@H](O)[C@@]1(C)[C@@H]3CC[C@H]4C(C)(C)[C@@H](O[C@H]5CN(C(=O)CNS(=O)(=O)C(F)(F)F)CCO5)CCC45C[C@@]35CC[C@]21C (stereo partly drawn) | < 1000 nM | 1000 to 10000 nM |
| CCO[C@@H]([C@H]1C[C@@H](C)[C@H]2[C@H](O1)[C@H](O)[C@@]1(C)[C@@H]3CC[C@H]4C(C)(C)[C@@H](OC(=O)[C@@H]5CCCN5C(=O)OC(C)(C)C)CCC45C[C@@]35CC[C@]21C)C(C)(C)O (stereo partly drawn) | 1000 to 10000 nM | 1000 to 10000 nM |
| CNC1CN(C(=O)O[C@H]2CCC34C[C@]35CC[C@]3(C)[C@@H]6[C@H](O[C@@H]([C@H](OC)C(C)(C)O)C[C@H]6C)[C@H](O)[C@@]3(C)[C@@H]5CC[C@H]4C2(C)C)C1 (stereo partly drawn) | 1000 to 10000 nM | < 1000 nM |
| CCO[C@@H]([C@H]1C[C@@H](C)[C@H]2[C@H](O1)[C@H](O)[C@@]1(C)[C@@H]3CC[C@H]4C(C)(C)[C@@H](OC(=O)[C@@H]5CN(C)CCO5)CC[C@@]45C[C@@]35CC[C@]21C)C(C)(C)O | 1000 to 10000 nM | < 1000 nM |
| CCO[C@@H]([C@H]1C[C@@H](C)[C@H]2[C@H](O1)[C@H](O)[C@@]1(C)[C@@H]3CC[C@H]4C(C)(C)[C@@H](OC(=O)[C@H]5CN(C)CCO5)CCC45C[C@@]35CC[C@]21C)C(C)(C)O (stereo partly drawn) | 1000 to 10000 nM | < 1000 nM |
| CCO[C@@H]([C@H]1C[C@@H](C)[C@H]2[C@H](O1)[C@H](O)[C@@]1(C)[C@@H]3CC[C@H]4C(C)(C)[C@@H](O[C@H]5CN(c6ncccn6)CCO5)CCC45C[C@@]35CC[C@]21C)C(C)(C)O (stereo partly drawn) | 1000 to 10000 nM | 1000 to 10000 nM |
| CO[C@@H](C1C[C@@H](C)[C@H]2C(O1)[C@H](O)[C@@]1(C)C3CC[C@H]4C(C)(C)[C@@H](O[C@H]5CN(CCN6CCC6)CCO5)CCC45C[C@@]35CC[C@]21C)C(C)(C)O (stereo partly drawn) |  | < 1000 nM |
| CO[C@@H]([C@H]1C[C@@H](C)[C@H]2[C@H](O1)[C@H](O)[C@@]1(C)[C@@H]3CC[C@H]4C(C)(C)[C@@H](O[C@H]5CNCCO5)CCC45C[C@@]35CC[C@]21C)C(C)(C)OC (stereo partly drawn) | < 1000 nM | < 1000 nM |
| CCO[C@@H]([C@H]1C[C@@H](C)[C@H]2[C@H](O1)[C@H](O)[C@@]1(C)[C@@H]3CC[C@H]4C(C)(C)[C@@H](O[C@H]5CN(C6CN(S(C)(=O)=O)C6)CCO5)CCC45C[C@@]35CC[C@]21C)C(C)(C)O (stereo partly drawn) | < 1000 nM | < 1000 nM |
| CCO[C@@H]([C@H]1C[C@@H](C)[C@H]2[C@H](O1)[C@H](O)[C@@]1(C)[C@@H]3CC[C@H]4C(C)(C)[C@@H](O[C@H]5CN(Cc6nccn6C)CCO5)CCC45C[C@@]35CC[C@]21C)C(C)(C)O (stereo partly drawn) | 1000 to 10000 nM | < 1000 nM |
| CCO[C@@H]([C@H]1C[C@@H](C)[C@H]2[C@H](O1)[C@H](O)[C@@]1(C)[C@@H]3CC[C@H]4C(C)(C)[C@@H](OC(=O)[C@H]5COCCN5C(=O)OC(C)(C)C)CCC45C[C@@]35CC[C@]21C)C(C)(C)O (stereo partly drawn) | 1000 to 10000 nM | 1000 to 10000 nM |
| C[C@@H]1C[C@H]([C@H](OCCO)C(C)(C)O)O[C@H]2[C@H]1[C@@]1(C)CC[C@@]34CC35CC[C@H](O[C@H]3CN(C6CN(C7COC7)C6)CCO3)C(C)(C)[C@@H]5CC[C@H]4[C@]1(C)[C@H]2O (stereo partly drawn) | 1000 to 10000 nM | 1000 to 10000 nM |
| CCO[C@@H]([C@H]1C[C@@H](C)[C@H]2[C@H](O1)[C@H](O)[C@@]1(C)[C@@H]3CC[C@H]4C(C)(C)[C@@H](O[C@H]5CNCCO5)CCC45C[C@@]35CC[C@]21C)C(C)(C)OCC (stereo partly drawn) | 1000 to 10000 nM | 1000 to 10000 nM |
| CCO[C@@H]([C@H]1C[C@@H](C)[C@H]2[C@H](O1)[C@H](O)[C@@]1(C)[C@@H]3CC[C@H]4C(C)(C)C(O[C@H]5CN(CCNCCNC(=O)CCC6(C)N=N6)CCO5)CC[C@@]45CC35CC[C@]21C)C(C)(C)O (stereo partly drawn) | 1000 to 10000 nM | < 1000 nM |
| CCO[C@@H](C1C[C@@H](C)[C@H]2C(O1)[C@H](O)[C@@]1(C)C3CC[C@H]4C(C)(C)[C@@H](O[C@H]5CN(Cc6ncco6)CCO5)CCC45C[C@@]35CC[C@]21C)C(C)(C)O (stereo partly drawn) | 1000 to 10000 nM | < 1000 nM |
| CCO[C@@H]([C@H]1C[C@@H](C)[C@H]2[C@H](O1)[C@H](O)[C@@]1(C)[C@@H]3CC[C@H]4C(C)(C)[C@@H](OC(=O)[C@@H]5CN(C(=O)OC(C)(C)C)CCO5)CCC45C[C@@]35CC[C@]21C)C(C)(C)O (stereo partly drawn) | < 1000 nM | < 1000 nM |

Reference: patent publication US20130060013A1, “Compounds useful for treating neurodegenerative disorders” (SATORI PHARMACEUTICALS, INC., priority 2011, published 2013)
